Experimental data reported in patent publication EP4733303A1, “MUSCARINIC M4 RECEPTOR AGONIST AND USE THEREOF” (Haisco Pharmaceutical Group Co., Ltd., priority 2023, dated 2024).
pEC50: −log10 of the molar value. One block for each compound: values may come before it.

How the values were obtained:
M4 receptor = target: T1, M4 receptor (Homo sapiens, UniProt P08173); test: PAM agonistic activity of compound on M4 receptor (FLIPR Calcium 6 assay in M4-CHO cells); format: cell-based; conditions: with acetylcholine (Ach), final concentration 3 nM
T1 construct: expressed in transfected cells; host or cells: CHO (M4-CHO cells)
T1 sequence (P08173 1-479): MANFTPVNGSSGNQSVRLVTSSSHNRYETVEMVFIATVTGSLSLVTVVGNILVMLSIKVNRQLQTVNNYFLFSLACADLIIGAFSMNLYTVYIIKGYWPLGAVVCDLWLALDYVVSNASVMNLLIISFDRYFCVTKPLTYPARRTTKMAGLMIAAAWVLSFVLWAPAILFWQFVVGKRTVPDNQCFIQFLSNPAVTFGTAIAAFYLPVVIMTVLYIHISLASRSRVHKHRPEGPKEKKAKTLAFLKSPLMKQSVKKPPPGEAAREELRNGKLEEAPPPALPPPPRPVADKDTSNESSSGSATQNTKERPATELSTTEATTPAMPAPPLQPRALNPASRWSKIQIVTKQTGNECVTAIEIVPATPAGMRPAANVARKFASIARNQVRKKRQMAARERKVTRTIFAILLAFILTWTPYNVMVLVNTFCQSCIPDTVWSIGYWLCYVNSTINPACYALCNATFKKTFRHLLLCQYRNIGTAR
Protocol: • 1). Cell plating: M4-CHO cells were digested, collected, and resuspended. After cell counting, the cell suspension was seeded into a 384-well cell plate at a density of: 1.2 × 10^4 cells/25 µL/well. The cell plate was then cultured in a 37°C, 5% CO2 incubator for about 16-20 h. • 2). Day 2: Assay Buffer was prepared according to the instructions of the FLIPR Calcium 6 Assay Kit. Component A (20×) was thawed to room temperature and diluted with the Assay Buffer to prepare a loading buffer (1×), which was stored at room temperature until use. • 3). The culture medium was removed from the cell plate. 40 µL of the loading buffer (1×) was quickly added to each well. The cell plate was then centrifuged and incubated at 37°C in the dark for 120 min. • 4). Working solutions of the positive control compound and the test compounds were prepared. An acetylcholine (Ach) agonist compound solution was prepared (final concentration: 3 nM). The PAM compound and the Ach agonist solution were mixed at a 1 : 1 ratio, and the mixture was transferred into a 384-well compound source plate at 20 µL per well. • 5). The cell plate, the compound source plate, and the pipette tips were placed into the corresponding positions within the FLIPR instrument. 10 µL of the diluted compound from step 4 was added into each experimental well using the FLIPR Tetra. Data was collected at the wavelength of 515 nm-575 nm. • 6). The signal values were plotted against the compound concentrations. Nonlinear regression analysis was performed using GraphPad Prism software for curve fitting and EC50 calculation.
The experimental results are shown in Table 1, where A represents EC50 < […]; B represents 100 nM ≤ EC50 < 500 nM, and C represents 500 nM ≤ EC50. Table 1. Agonistic activity of compounds on M4 receptor

[1] = Pharmacokinetic test in rats (plasma and brain); format: in vivo, SD rats; conditions: for F: i.g. 10 mg/kg versus i.v. 2.5 mg/kg; for Cmax / clearance / half-life / AUC(0-t): plasma
Text: 3.1 Experimental animals: male SD rats, about 220 g, 6-8 weeks old, divided into an intravenous group and an intragastric group.
3.2 Experimental design: on the day of the experiment, the SD rats were randomly grouped according to their body weights. […] Table 5. Administration information
(§1) The whole blood was centrifuged to separate the plasma; the brain tissue was rinsed with cold physiological saline to remove the residual blood on the surface, drained out and then homogenized. Before analysis and detection, all samples were stored at -80°C, and the samples were quantitatively analysed by LC-MS/MS. Table 6. Pharmacokinetic parameters of test compound in plasma of rats

[2] = Pharmacokinetic test in mice (plasma and brain); format: in vivo, C57 mice; conditions: for F: i.g. 10 mg/kg versus i.v. 2.5 mg/kg; for Kp / AUC(0-t) / Cmax / clearance / half-life: mouse; for Kp: read-out: Brain/plasma ratio
Text: 2.1 Experimental animals: male C57 mice, 20-25 g, divided into an intravenous group and an intragastric group.
2.2 Experimental design: on the day of the experiment, the C57 mice were randomly grouped according to their body weights. […] Table 2. Administration information
as §1, with “3.” for “6.”, “compounds” for “compound”, “mice” for “plasma of rats”

[3] = Pharmacokinetic test in monkeys; format: in vivo; conditions: male cynomolgus monkeys
Protocol: Experimental animals: male cynomolgus monkeys, 3-5 kg, 3-6 years old, divided into an intravenous group and an intragastric group.
Experimental method: on the day of the experiment, the monkeys were randomly grouped according to their body weights. […] Table 9. Administration information
Before and after the administration, 1.0 mL of blood was taken from the limb veins and placed in an EDTAK2 centrifuge tube. Centrifugation was carried out at 5000 rpm at 4°C for 10 min, and the plasma was collected. […] Before analysis and detection, all samples were stored at -80°C, and the samples were quantitatively analysed by LC-MS/MS. Table 10. Pharmacokinetic parameters of test compound in plasma of monkeys

[4] = rat, in vivo, male SD rats, i.v. 2.5 mg/kg and i.g. 10 mg/kg groups, route of the parameter not given
[5] = male C57 mice, plasma, i.v. 2.5 mg/kg and i.g. 10 mg/kg groups, route of the parameter not given
[6] = male C57 mice, plasma, i.v. 2.5 mg/kg and i.g. 10 mg/kg groups, route of the parameter not given, read-out: AUC0-t
[7] = in vivo, male C57 mice, plasma, i.v. 2.5 mg/kg and i.g. 10 mg/kg groups, route of the parameter not given
[8] = rat, male SD rats, i.v. 2.5 mg/kg and i.g. 10 mg/kg groups, route of the parameter not given
[9] = cynomolgus monkey, plasma, i.v. 1 mg/kg and i.g. 5 mg/kg groups, route of the parameter not given

Compound: Cc1cc(C)c2c(n1)CN(C(=O)CC1CN(c3ccnc(-n4ccc(C)n4)c3)C1)C2 [Compound 29]
pEC50 (M4 receptor): > 7.00
F ([1]; male SD rats): >98%
Cmax [1, 4]: 7960 ng/mL
clearance [1, 4]: 18.9 mL/min/kg
half-life [1, 4]: 0.646 h
AUC(0-t) ([1]; rat, in vivo, male SD rats, i.v. 2.5 mg/kg and i.g. 10 mg/kg groups, route of the parameter not given, read-out: AUC0-t): 12200 ng·h/mL

Compound: Cc1cc(-c2cnn(C)c2)nc2c1CN(C(=O)CC1CN(c3ccnc(OC4CC(F)(F)C4)c3)C1)C2 [Compound 104]
pEC50 (M4 receptor): > 7.00
F ([2]; male C57 mice): >98%
Brain tissue AUC0-t ([2]; mice, i.g. (10 mg/kg)): 4776 ng·h/g
Kp ([2]; in vivo, po, mice, i.g. (10 mg/kg)): 0.528
AUC(0-t) ([2]; in vivo, po, mice, i.g. (10 mg/kg), read-out: Plasma AUC0-t): 2520 ng·h/mL
Cmax [2, 5]: 4540 ng/mL
clearance [2, 5]: 11.1 mL/min/kg
half-life [2, 5]: 2.2 h
AUC(0-t) [2, 6]: 16900 ng·h/mL

Compound: Cc1nc(-c2cnn(C)c2)nc2c1CN(C(=O)CC1CN(c3ccnc(C(F)(F)F)c3)C1)C2 [Compound 122]
pEC50 (M4 receptor): > 7.00
F ([2]; male C57 mice): >98%
Cmax [2, 7]: 6400 ng/mL
clearance [2, 7]: 9.24 mL/min/kg
half-life [2, 7]: 2.94 h
AUC(0-t) ([2]; in vivo, male C57 mice, plasma, i.v. 2.5 mg/kg and i.g. 10 mg/kg groups, route of the parameter not given, read-out: AUC0-t): 26300 ng·h/mL

Compound: Cc1cc(=O)n(C(F)F)c2c1CN(C(=O)CC1CN(c3ccnc(OC4CC(F)(F)C4)c3)C1)C2 [Compound 128]
pEC50 (M4 receptor): > 7.00
F ([2]; male C57 mice): >98%
Brain tissue AUC0-t ([2]; mice, i.g. (10 mg/kg)): 5618 ng·h/g
Kp ([2]; brain/plasma, po, mice, i.g. (10 mg/kg)): 0.581
AUC(0-t) ([2]; plasma, po, mice, i.g. (10 mg/kg), read-out: Plasma AUC0-t): 9680 ng·h/mL
Cmax [2, 5]: 6030 ng/mL
clearance [2, 5]: 6.91 mL/min/kg
half-life [2, 5]: 2.25 h
AUC(0-t) [2, 6]: 25700 ng·h/mL
F ([1]; male SD rats): >98%
Kp ([1]; rat, brain/plasma, po, rats, i.g. (10 mg/kg), read-out: Brain/plasma ratio): 0.497
AUC(0-t) ([1]; rat, po, rats, i.g. (10 mg/kg), read-out: Plasma AUC0-t): 46100 ng·h/mL
Cmax [1, 8]: 5140 ng/mL
clearance [1, 8]: 6.33 mL/min/kg
half-life [1, 8]: 4.68 h
AUC(0-t) ([1]; rat, male SD rats, i.v. 2.5 mg/kg and i.g. 10 mg/kg groups, route of the parameter not given, read-out: AUC0-t): 34000 ng·h/mL
Brain tissue AUC0-t ([1]; rats, i.g. (10 mg/kg)): 22917 ng·h/g
AUC(0-t) [3, 9]: 5940 ng·h/mL
Cmax [3, 9]: 495 ng/mL
clearance [3, 9]: 10.1 mL/min/kg
half-life [3, 9]: 7.19 h
F ([3]; i.g. 5 mg/kg versus i.v. 1 mg/kg): 71.4%

Compound: Cc1cc(-c2cnn(C)c2)nc2c1CN(C(=O)CC1CN(c3nc(C4CC4)ncc3F)C1)C2 [Compound 204]
pEC50 (M4 receptor): > 7.00

Compound: Cc1nc(-c2cnn(C)c2)nc2c1CN(C(=O)CC1CN(c3nc(C4CC4)ncc3F)C1)C2 [Compound 207]
pEC50 (M4 receptor): > 7.00

Compound: Cc1ccn(-c2cc(N3CC(CC(=O)N4Cc5c(C)c(F)c(=O)n(C(F)F)c5C4)C3)ccn2)n1 [Compound 208]
pEC50 (M4 receptor): > 7.00

Compound: Cc1cc(-c2cnoc2)nc2c1CN(C(=O)CC1CN(c3ccnc(OC4CC(F)(F)C4)c3)C1)C2 [Compound 216]
pEC50 (M4 receptor): > 7.00

Compound: Cc1cc(C)c2c(n1)CN(C(=O)CC1CN(c3ccnc(C(F)(F)F)c3)C1)C2 [DZ-01, reference compound]
F ([2]; male C57 mice): >98%
Cmax [2, 5]: 3800 ng/mL
clearance [2, 5]: 75.1 mL/min/kg
half-life [2, 5]: 1.23 h
AUC(0-t) [2, 6]: 3610 ng·h/mL

Further lines, results first:

pEC50 (M4 receptor): > 7.00
Compound: Cc1c2c(n(C)c(=O)c1F)CN(C(=O)CC1CN(c3ccnc(OC4CCOC4)c3)C1)C2 (stereo not shown) [Compound 199]

pEC50 (M4 receptor): > 7.00
Compound: Cc1cc(=O)n(C(F)F)c2c1CN(C(=O)CC1CN(c3ccnc(OC4CC(=C(F)F)C4)c3)C1)C2 (stereo not shown) [Compound 200]

pEC50 (M4 receptor): > 7.00
Compound: Cc1c2c(n(C(F)F)c(=O)c1F)CN(C(=O)CC1CN(c3ccnc(OC4CC(=C(F)F)C4)c3)C1)C2 (stereo not shown) [Compound 201]

pEC50 (M4 receptor): > 7.00
Compound: Cc1ccn(-c2cc(N3CC(CC(=O)N4Cc5c(C)c(F)c(=O)n(C)c5C4)C3)ccn2)n1 [Compound 209]

pEC50 (M4 receptor): > 7.00
Compound: Cc1c2c(n(C)c(=O)c1F)CN(C(=O)CC1CN(c3ccnc(OC4CCOC4)c3)C1)C2 (stereo not shown) [Compound 210]

pEC50 (M4 receptor): > 7.00
Compound: Cc1ncn(-c2cc(N3CC(CC(=O)N4Cc5c(C)c(F)c(=O)n(C)c5C4)C3)ccn2)n1 [Compound 211]

pEC50 (M4 receptor): > 7.00
Compound: Cc1c2c(n(C)c(=O)c1F)CN(C(=O)CC1CN(c3ccnc(OC4CC(=C(F)F)C4)c3)C1)C2 (stereo not shown) [Compound 213]

pEC50 (M4 receptor): > 7.00
Compound: Cc1c2c(n(C)c(=O)c1F)CN(C(=O)CC1CN(c3ccnc(Oc4cnn(C)c4)c3)C1)C2 [Compound 214]

pEC50 (M4 receptor): > 7.00
Compound: Cc1c2c(n(C)c(=O)c1F)CN(C(=O)CC1CN(c3ccnc(OC4CC4)c3)C1)C2 [Compound 215]
